Data published in patent US6896895B2, “Carotenoid esters, carotenoid-enriched feeds, and methods of pigmenting foods and foodstuffs” (DSM IP Assets B.V., priority 2000, dated 2005).

How the values were obtained:
[1] = system: egg yolk; assay: Egg yolk colour: reflectance colorimetry and Roche Yolk Colour Fan; assay type: in vivo, laying hens (ISA Brown); design: key to Chroma C*ab Value: CIE L*a*b* chroma C* value; key to Color Fan Value / Color Fan Value Value: visual score on Roche Yolk Colour Fan (RYCF, 1993 version); key to Color Fan Value, Pigmentation: − = off color; + = good color; conditions: laying hens
Method in brief: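 ISA Brown laying hens, depleted at least 28 days on low-carotenoid basal diet (<2 mg xanthophylls/kg), fed pigment-supplemented mash ad libitum for three weeks. Pooled yolks of three to six eggs scored with Roche Yolk Colour Fan and measured by reflectance colorimetry (D65, 8°) as CIE L*a*b*, h*, C*; values average four yolk pools.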

[2] = Carotenoid ester content and deposition rate in egg yolk of laying hens (HPLC); assay type: in vivo, laying hens (ISA Brown); design: Deposition Rate Value: unit not given here
Method in brief: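 Hens were first depleted for at least 28 days on a low-carotenoid basal diet (<2 mg total xanthophylls/kg, also the control diet), then fed mash supplemented with the pigments ad libitum for three weeks. Pooled homogenised yolk was extracted with ethanol/n-hexane and analysed by HPLC, calibrated with all-E ethyl β-apo-8′-carotenoate. Response factors were adjusted by molecular weight, and Z-isomers were corrected by a factor of 1.4.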

[3] = egg yolk, average over doses, Table 7
[4] = egg yolk, average over doses, Table 9
[5] = egg yolk, trial H-25/99, 5.0 mg/kg feed
[6] = egg yolk, trial H-25/99, 5.0 mg/kg feed, Table 9

CCCC(C)OC(=O)C(C)=CC=CC(C)=CC=CC=C(C)C=CC=C(C)C=CC1=C(C)CCCC1(C)C (stereo not drawn) [compound (19), 2-pentyl beta-apo-8′-carotenoate]
Color Fan Value % of Controls [1, 3]: 87% | Chroma C*ab % of Controls [1, 4]: 113% | Color Fan Value % of Controls [1, 4]: 87% | Color Hue h*ab % of Controls [1, 4]: 96% | Chroma C*ab % of Controls [1, 5]: 113% | Chroma C*ab Value [1, 5]: 58 | Color Fan Value [1, 5]: 7 | Color Fan Value % of Controls [1, 5]: 87% | Color Fan Value, Pigmentation [1, 5]: + | Color Hue h*ab % of Controls [1, 5]: 96% | Color Hue h*ab Value [1, 5]: 82 | Color Fan Value % of Controls [1, 6]: 87% | Color Fan Value Value [1, 6]: 7 | Color Fan Value, Pigmentation [1, 6]: + | quality in terms of deposition rate and color intensity (chroma C*a*b*) in the egg yolk ([1]; compared to the control): comparable quality | Deposition Rate Target Values % of Controls [2, 3]: 101% | Ethyl β-apo-8′-carotenoate Equivalents % of Controls [2, 3]: 94% | Deposition Rate % of Controls [2, 4]: 101% | Deposition Rate Target Values [2, 5]: 51.2% | Deposition Rate Target Values % of Controls [2, 5]: 101% | Ethyl β-apo-8′-carotenoate Equivalents [2, 5]: 14.6 mg/kg | Ethyl β-apo-8′-carotenoate Equivalents % of Controls [2, 5]: 94% | Deposition Rate % of Controls [2, 6]: 101% | Deposition Rate Value [2, 6]: 51 | concentration in the egg yolk ([2]; versus the control): in the range of the control
